In patent US9776972B2, “Pyrazole derivatives as arginine methyltransferase inhibitors and uses thereof” (priority 2013, dated 2017):
Counter-ions that a name gives are not always drawn.

Key:
human PRMT1 = molecular target: T1, human PRMT1 (Homo sapiens, UniProt Q99873); assay: PRMT1 Biochemical Assay (3H-SAM Flashplate, peptide substrate); details: single experiment or average of multiple experiments
T1 construct: GST-tagged PRMT1; made in house; host or cells: High Five insect cells (baculovirus)
T1 sequence (Q99873 with tags, fused parts or gaps): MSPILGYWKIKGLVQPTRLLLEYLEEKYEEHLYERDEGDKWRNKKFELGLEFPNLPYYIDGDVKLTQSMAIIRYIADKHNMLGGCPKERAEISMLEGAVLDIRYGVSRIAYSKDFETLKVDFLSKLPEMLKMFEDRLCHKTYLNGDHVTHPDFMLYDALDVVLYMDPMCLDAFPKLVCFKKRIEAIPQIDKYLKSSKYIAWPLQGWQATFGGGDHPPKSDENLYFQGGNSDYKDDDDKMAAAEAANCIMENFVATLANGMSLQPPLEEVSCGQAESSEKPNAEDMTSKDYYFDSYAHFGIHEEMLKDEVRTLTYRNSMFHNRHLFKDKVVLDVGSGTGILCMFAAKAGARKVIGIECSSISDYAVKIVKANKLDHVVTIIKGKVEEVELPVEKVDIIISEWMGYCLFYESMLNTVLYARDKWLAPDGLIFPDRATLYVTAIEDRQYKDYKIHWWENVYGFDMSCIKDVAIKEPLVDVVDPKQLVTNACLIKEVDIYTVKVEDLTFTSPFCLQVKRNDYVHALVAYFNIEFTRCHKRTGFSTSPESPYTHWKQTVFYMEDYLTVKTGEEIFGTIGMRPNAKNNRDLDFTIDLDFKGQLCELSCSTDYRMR
In short: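 GST-tagged PRMT1 from baculovirus-infected cells, preincubated with compounds 30 min at room temperature in 20 mM Bicine pH 7.6, 1 mM TCEP, 0.005% BSG, 0.002% Tween 20. Reaction started with ³H-SAM plus biotinylated peptide, stopped with 300 µM cold SAM.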

Human CARM1 (PRMT4) = molecular target: T2, Human CARM1 (PRMT4) (Homo sapiens, UniProt Q86X55); assay: CARM1 Biochemical Assay (3H-SAM Flashplate, peptide substrate); details: single experiment or average of multiple experiments
T2 construct: Flag-CARM1-His; made in house; host or cells: HEK 293F cells (BacMam baculovirus)
T2 sequence (Q86X55 1-585 isoform Q86X55-1): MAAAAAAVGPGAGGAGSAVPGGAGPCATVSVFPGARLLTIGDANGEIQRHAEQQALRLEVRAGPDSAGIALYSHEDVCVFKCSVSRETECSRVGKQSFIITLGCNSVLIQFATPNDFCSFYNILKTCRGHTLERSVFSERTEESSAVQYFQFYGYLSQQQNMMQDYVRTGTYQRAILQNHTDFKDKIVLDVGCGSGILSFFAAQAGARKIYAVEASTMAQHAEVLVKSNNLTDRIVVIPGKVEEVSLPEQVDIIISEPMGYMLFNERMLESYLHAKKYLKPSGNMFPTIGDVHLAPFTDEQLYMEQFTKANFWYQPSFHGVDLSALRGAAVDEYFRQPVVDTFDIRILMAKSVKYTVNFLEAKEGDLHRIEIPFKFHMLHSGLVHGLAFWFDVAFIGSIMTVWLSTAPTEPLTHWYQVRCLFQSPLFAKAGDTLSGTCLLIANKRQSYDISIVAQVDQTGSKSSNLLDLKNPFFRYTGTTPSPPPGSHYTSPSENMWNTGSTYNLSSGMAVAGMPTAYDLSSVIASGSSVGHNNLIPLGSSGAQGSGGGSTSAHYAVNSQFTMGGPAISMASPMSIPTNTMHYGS
Source text: S-adenosylmethionine (SAM), S-adenosylhomocysteine (SAH), bicine, Tween20, dimethylsulfoxide (DMSO), bovine skin gelatin (BSG), sodium butyrate and Tris(2-carboxyethyl)phosphine hydrochloride solution (TCEP) were purchased from Sigma-Aldrich at the highest level of purity possible. ^3H-SAM was purchase from American Radiolabeled Chemicals with a specific activity of 80 Ci/mmol. 384-well streptavidin Flashplates were purchased from PerkinElmer.
Peptide representative of human histone H3 residues 16-30 was synthesized with an N-terminal linker-affinity tag motif and a C-terminal amide cap by 21st Century Biochemicals. […] The sequence was Biot-Ahx-[…]-amide and contained a monomethylated arginine at position 26 (SEQ ID NO.: 14).
Recombinant baculovirus were generated according to Bac-to-Bac kit instructions (Life Technologies). […] Infections were carried out at 37° C. for 48 hours, harvested by centrifugation, and stored at −80° C. for purification.
Column was washed with 500 mM NaCl in buffer A and Flag-CARM1-His was eluted with 200 ug/ml FLAG peptide in buffer A. Pooled fractions were dialyzed in 20 mM Tris, 150 mM NaCl, 5% glycerol and 1 mM DTT, pH 7.8.
General Procedure for CARM1 Enzyme Assays on Peptide Substrates.
The assays were all performed in a buffer consisting of 20 mM Bicine (pH=7.6), 1 mM TCEP, 0.005% BSG, and 0.002% Tween 20, prepared on the day of use. […] DMSO (1 ul) was added to Columns 11, 12, 23, 24, rows A-H for the maximum signal control and 1 ul of SAH, a known product and inhibitor of CARM1, was added to columns 11, 12, 23, 24, rows I-P for the minimum signal control. A cocktail (40 ul) containing the CARM1 enzyme was added by Multidrop Combi (Thermo-Fisher). The compounds were allowed to incubate with CARM1 for 30 min at room temperature, then a cocktail (10 ul) containing ^3H-SAM and peptide was added to initiate the reaction (final volume=51 ul). […] The assays were stopped by the addition of non-radiolabeled SAM (10 ul) to a final concentration of 300 uM, which dilutes the ^3H-SAM to a level where its incorporation into the peptide substrate is no longer detectable. 50 ul of the reaction in the 384-well polypropylene plate was then transferred to a 384-well Flashplate and the biotinylated peptides were allowed to bind to the streptavidin surface for at least 1 hour before being washed once with 0.1% Tween20 in a Biotek ELx405 plate washer. The plates were then read in a PerkinElmer TopCount plate reader to measure the quantity of ^3H-labeled peptide bound to the Flashplate surface, measured as disintegrations per minute (dpm) or alternatively, referred to as counts per minute (cpm).
Where dpm=disintegrations per minute, cmpd=signal in assay well, and min and max are the respective minimum and maximum signal controls.
Where top and bottom are the normally allowed to float, but may be fixed at 100 or 0 respectively in a 3-parameter fit. The Hill Coefficient normally allowed to float but may also be fixed at 1 in a 3-parameter fit. Y is the % inhibition and X is the compound concentration.

Row | SMILES | IC50 (human PRMT1) [nM] | IC50 (Human CARM1 (PRMT4)) [nM]
1 | CNCCN(C)Cc1c[nH]nc1-c1cc(F)ccc1F [Compound 50] | 149 | 4320
2 | CNCCN(C)Cc1c[nH]nc1-c1ccc(OC)cc1OC [Compound 55] | 190 | 4200
3 | CNCCN(C)Cc1cn(CCCC(O)CO)nc1-c1ccc(F)cc1 (centres unmarked) [Compound 30] | 3560 | 3680
4 | CNCCN(C)Cc1c[nH]nc1-c1cccc(O)c1 [Compound 26] | 197 | 2340
5 | CNCCN(C)Cc1cn(CCC(O)CO)nc1-c1ccc(F)cc1 (centres unmarked) [Compound 59] | 5860 | 4590
6 | CNCCN(C)Cc1c[nH]nc1-c1ccc(N)cc1 [Compound 33] | 153 | 1380
7 | CNCCN(C)Cc1c[nH]nc1-c1ccc(F)cc1F [Compound 49] | 165 | 5040
8 | CNCCN(C)Cc1c[nH]nc1-c1ccccc1OC [Compound 23] | 194 | 1760
9 | CCn1ncc(CN(C)CCNC)c1-c1ccc(OC(C)C)cc1 [Compound 252] | 25.8 | 531
10 | CNCCN(C)Cc1c[nH]nc1-c1cccc(C#N)c1 [Compound 22] | 166 | 1370
11 | CN(CCN)Cc1cnn(CCO)c1-c1ccc(F)cc1 [Compound 65] | 1940 | 8930
12 | CNCCN(C)Cc1c[nH]nc1-c1ccc(C)cc1C [Compound 29] | 178 | 6300
13 | CNCCN(C)Cc1cnn(C2CCCC2)c1-c1ccc(OC(C)C)cc1 [Compound 255] | 16.8 | 1170
14 | CNCCN(C)Cc1cn(CC(=O)OC)nc1-c1ccc(OC(C)C)cc1 [Compound 248] | 215 | 3750
15 | CNCCN(C)Cc1cn(Cc2cccnc2)nc1-c1ccc(OC(C)C)cc1 [Compound 246] | 61.5 | 2430
16 | CNCCN(C)Cc1cnn(CCCC(O)CO)c1-c1ccc(F)cc1 (centres unmarked) [Compound 31] | 779 | 1840
17 | CN(CCN)Cc1cn(CCO)nc1-c1ccc(F)cc1 [Compound 66] | 2410 | 3790
18 | CNCCN(C)Cc1cnn(CC(=O)OC)c1-c1ccc(OC(C)C)cc1 [Compound 249] | 109 | 9630
19 | CNCCN(C)Cc1c[nH]nc1-c1ccc(C(=O)c2ccccc2)cc1 [Compound 45] | 8.34 | 42.9
20 | CNCCN(C)Cc1cn(CC(N)=O)nc1-c1ccc(OC(C)C)cc1 [Compound 251] | 275 | 2980
21 | CCNC(=O)c1cccc(-c2n[nH]cc2CN(C)CCNC)c1 [Compound 43] | 338 | 4960
22 | CNCCN(C)Cc1cn(Cc2ccccn2)nc1-c1ccc(OC(C)C)cc1 [Compound 247] | 147 | 2820
23 | CNCCN(C)Cc1cn(C2CCCCC2)nc1-c1ccc(OC(C)C)cc1 [Compound 256] | 132 | 571

Now from value to compound:

Row | IC50 (human PRMT1) [nM] | IC50 (Human CARM1 (PRMT4)) [nM] | SMILES
24 | 2.74 | 15.2 | CNCCN(C)Cc1c[nH]nc1-c1ccc(Oc2ccccc2)cc1 [Compound 37]
25 | 113 | 2260 | CNCCN(C)Cc1cn(CCOC)nc1-c1ccc(OC(C)C)cc1 [Compound 253, N1-((3-(4-isopropoxyphenyl)-1-(2-methoxyethyl)-1H-pyrazol-4-yl)methyl)-N1,N2-dimethylethane-1,2-diamine hydrochloride]
26 | 4.12 | 278 | CCCc1ccc(-c2n[nH]cc2CN(C)CCNC)cc1 [Compound 20]
27 | 12.9 | 625 | CNCCN(C)Cc1c[nH]nc1-c1ccc(F)c(F)c1 [Compound 51]
28 | 97.7 | 1710 | CNCCN(C)Cc1c[nH]nc1-c1ccc(O)cc1 [Compound 27]
29 | 5.73 | 582 | CNCCN(C)Cc1c[nH]nc1-c1ccc2ccccc2c1 [Compound 58]
30 | 6.04 | 802 | CN(CCN)Cc1c[nH]nc1-c1ccc(C#N)cc1 [Compound 68]
31 | 17.7 | 301 | CNCCN(C)Cc1cn(C)nc1-c1ccc(OC(C)C)cc1 [Compound 243, N^1-((3-(4-isopropoxyphenyl)-1-methyl-1H-pyrazol-4-yl)methyl)-N1,N2-dimethylethane-1,2-diamine]
32 | 85.6 | 1210 | CNCCN(C)Cc1c[nH]nc1-c1cccc(OC)c1 [Compound 24]
33 | 20.9 | 1560 | CNCCN(C)Cc1c[nH]nc1-c1ccc(OC)cc1 [Compound 25]
34 | 11.1 | 337 | CNCCN(C)Cc1c[nH]nc1-c1ccc(CO)cc1 [Compound 28]
35 | 43.9 | 1700 | C=CC(=O)Nc1cccc(-c2[nH]ncc2CN(C)CCNC)c1 [Compound 258]
36 | 7.07 | 1310 | CNCCN(C)Cc1c[nH]nc1-c1cccc2ccccc12 [Compound 57]
37 | 13.9 | 672 | CCN(CCN)Cc1c[nH]nc1-c1ccc(F)cc1 [Compound 62]
38 | 57.9 | 2090 | CNCCN(C)Cc1c[nH]nc1-c1cccc([N+](=O)[O-])c1 [Compound 21]
39 | 12.6 | 1500 | CNCCN(C)Cc1c[nH]nc1-c1ccc(OC)c(F)c1 [Compound 52]
40 | 29.3 | 413 | CNCCN(C)Cc1cn(C2CCC2)nc1-c1ccc(OC(C)C)cc1 [Compound 254, N1-((1-cyclobutyl-3-(4-isopropoxyphenyl)-1H-pyrazol-4-yl)methyl)-N1,N2-dimethylethane-1,2-diamine hydrochloride]
